PMC4335872, “Pharmacokinetic-Pharmacodynamic Analysis of Spiroindolone Analogs and KAE609 in a Murine Malaria Model” (Antimicrobial Agents and Chemotherapy, 2015)
Where two headings read alike, the source gives them in different places.

Legend:
[1] = Oral PK and PK modeling of KAE609 in NMRI mice; assay type: in vivo, female NMRI mice; details: for AUC(0-inf) / Cmax: NMRI, 5.3 mg/kg, single oral dose 5.3 mg/kg
Experimental: For the in vivo PK studies, female NMRI mice (specific pathogen free) were obtained from Janvier, Le Genest-Saint-Isle, France. To investigate the influence of the disease status on the pharmacokinetics, a single oral dose (5.3 mg/kg) of KAE609 was given to both the infected and uninfected NMRI mice, and the PK parameters were determined. The infected mice were dosed at 24 h postinfection. The formulation, sampling times (0.25, 0.5, 1, 2, 4, 8, 24, and 48 h postdose), extraction, and analysis were similar to those in the method described above.
Population PK modeling of the concentration-time data of KAE609 in mice was performed using naive pooling without intersubject variability using NONMEM version VI 2.0. A two-compartment pharmacokinetic model with first-order absorption and nonlinear elimination was built to fit the concentration-time data of KAE609 generated in (infected and healthy) NMRI mice at 5.3 mg/kg. In the model, clearance (CL) was described by equation 2, where Cp is compound plasma concentration, the maximum metabolic rate (Vmax)/Km ratio is the maximal clearance achievable when Cp is ≪Km, and Km corresponds to the compound concentration at which the clearance reached 50% of the Vmax/Km. The primary model parameters derived were plasma clearance (CL) (in liters/h/kg), intercompartmental clearance (Q) (in liters/h/kg), central and peripheral volume of distribution (Vc and Vp, respectively) (in liters/kg), and the absorption rate constant (Ka) (in h^−1). The diagnostic plots were analyzed for closeness to and randomness along the line of identity on the observed versus predicted concentration plot, as well as randomness along the weighted residual zero line on the predicted concentration or time. […] Based on the estimated primary model parameters (Vmax, Km, Vc, Vp, Q, and Ka), the plasma concentration-time profiles and secondary pharmacokinetic parameters, such as Cmax, AUC at different doses, and dosing regimens, were simulated using the Berkeley Madonna software (version 8.0.1) (Berkeley Madonna, University of California, Berkeley, CA. 2 CL=Vmax/(Km+Cp)

[2] = system: P. vivax and P. falciparum; details: cited from earlier work
[3] = In vivo PK after single p.o. and i.v. dosing in CD-1 mice; set-up: species or system female CD-1 mice; details: for AUC(0-t): read-out: AUC0–24; for Cmax: read-out: Cmax; for Tmax: read-out: Tmax
Experimental: The Institutional Animal Care and Use Committee (IACUC) of the Novartis Institute for Tropical Diseases (NITD), registered with the Agri-Food and Veterinary authority (AVA), Government of Singapore, reviewed and approved all animal experimental protocols. […] The mice were allowed to acclimate before the initiation of the experiments. Feed and water were given ad libitum. […] The blood samples from the mice were collected at 0.02 (for i.v. only), 0.08, 0.25, 0.5, 1, 2, 4, 8, 16, and 24 h postdosing. The dose proportionality studies were conducted with KAE609. […] Additional samples were collected at 32 h and 48 h postdose for the 1- and 5-mg/kg dose groups and up to 72 h postdose for the 100-mg/kg dose group. Groups of three mice were used for each time point. Blood was centrifuged at 13,000 rpm for 7 min at 4°C, and plasma was harvested and stored at -20°C until analysis. […] After vortexing and centrifuging the mixture, the supernatant was removed and 5 μl of sample analyzed. Analyte quantitation was performed by high-performance liquid chromatography coupled with tandem mass spectrometry (LC-MS/MS). […] Instrument control and data acquisition were performed using the Applied Biosystems software Analyst 1.4.2. […] Multiple-reaction monitoring (MRM) was combined with optimized MS parameters to maximize detection specificity and sensitivity. The most intense MRM transitions [338.3/295.1 for (+)-1, 370.1/327.0 for (+)-2, 370.0/326.9 for (+)-3, 354.1/310.8 for (+)-4, 354.1/311.2 for (+)-5, 372.1/329.1 for (+)-6, 388.0/331.8 for (+)-7, 372.1/316.1 for (-)-6, and 388/332 for (-)-7] were used for quantitation. Most compounds were analyzed using electrospray ionization in the negative mode, except (+)-1, which was analyzed using positive mode. The recovery of the compounds from plasma was good and consistent across the concentration range studied. The lower limits of quantification for different compounds ranged from 1.3 to 70 ng/ml in plasma. A calibration curve was freshly prepared and analyzed with every set of study samples. Intraday variability was established with triplicate quality control samples at three concentration levels. The results were accepted if relative standard deviation was <15%. The mean values of the compound concentrations in plasma were obtained from three animals at each time point and plotted against time to generate concentration-time profiles. […] The oral bioavailability (F) was calculated as the ratio between the area under the concentration-time curve from 0 to infinity (AUC0-∞) following oral administration and the AUC0-∞ following intravenous administration corrected for dose (F = […].).

[4] = system: P. berghei GFP ANKA malaria strain PbGFPCON; set-up: method as in PMID 20813948; details: cited from earlier work
[5] = Caco-2 permeability; assay type: in vitro ADME; details: human, Caco-2; apical to basolateral
Description: page 5: Running title: PreclinicalPK -PD of antimalarials 73 to high through put form at using in- house standard assa y protocols that are described in the 74 literature. 75 (a)HT-Equilibrium solubilit y at pH 6.8( 1); (b)Parallel Artificial Membrane P ermeability Assa y 76 expressed in % fraction absorbed (FA) ( 2,3 ); (c)Apparent permeability from apical to […] 78 tested; (d)intrinsic clearance in mouse liver micro somes ex pressed as µ L/ min/mg protein, in 79 the presen ce of liver enzym es ( 6); (e)Mous e plasm a protein binding using rapid equilibrium […] 81 82 83 84 85 86 87 88 89 90 91 92 93 94 95 96 97 98 5

[6] = female, mouse, plasma, po, infected NMRI mice
[7] = female, mouse, plasma, po, uninfected NMRI mice
[8] = two-compartment model, NMRI mice 5.3 mg/kg p.o.
[9] = patients, 30 mg daily for 3 days
[10] = female, mouse, plasma, oral 1.5 mg/kg, CD-1 mice, HCl/Solutol HS15/citrate pH 3 formulation
[11] = female, mouse, plasma, oral 5.6 mg/kg, CD-1 mice, HCl/Solutol HS15/citrate pH 3 formulation
[12] = female, mouse, plasma, oral 105 mg/kg, CD-1 mice, HCl/Solutol HS15/citrate pH 3 formulation
[13] = female, mouse, plasma, single oral dose 25 mg/kg, CD-1 mice
[14] = oral 1.5–105 mg/kg, CD-1 mouse, power regression model

For `C[C@H]1Cc2c([nH]c3cc(Cl)c(F)cc23)[C@@]2(N1)C(=O)Nc1ccc(Cl)cc12` [(+)-7 (KAE609)], the “Fold higher Cmax and exposure in NMRI mice than in CD-1 mice” value ([1]; comparable oral dose (5 mg/kg)) was 4 fold, the AUC(0-inf) [1, 6] was 12.6 µg·h/mL and the Cmax [1, 6] was 0.96 µg/mL. The AUC(0-inf) [1, 7] was 13.2 µg·h/mL, the Cmax [1, 7] was 1.01 µg/mL and the Km ([1]; female, mouse, plasma, po, two-compartment model, nonlinear elimination, NMRI mice 5.3 mg/kg p.o.) was 0.0341 µg/mL. The “Difference in PK profiles between infected and uninfected NMRI mice” value ([1]; oral 5.3 mg/kg) was “No significant difference”, the “Ka (absorption rate constant)” value [1, 8] was 1.78 h⁻¹ and the “Q (intercompartmental clearance)” value [1, 8] was 0.61 L/h/kg. The “Vc (central volume of distribution)” value [1, 8] was 4.4 L/kg, the “Vp (peripheral volume of distribution)” value [1, 8] was 5.1 L/kg and the Vmax ([1]; two-compartment model, nonlinear elimination, NMRI mice 5.3 mg/kg p.o.) was 143 µg/h/kg. For the same molecule, the Clinical outcome ([2]; 3-day dosing regimen of 30 mg daily, P. vivax and P. falciparum malaria patients) was “clearing parasitemia”, the “AUC (average of two cohorts)” value [2, 9] was 14,300 ng · h/ml and the “Cmax (average of two cohorts)” value [2, 9] was 0.855 µg/mL. The Vd ([3]; female, mouse, plasma, iv, i.v. 5 mg/kg, CD-1 mice, read-out: Vss) was 2.1 L/kg, the half-life ([3]; female, mouse, plasma, iv, i.v. 5 mg/kg, CD-1 mice, read-out: t1/2 (i.v.) (converted)) was 3.4 h and the AUC(0-t) [3, 10] was 1 µg·h/mL. The Cmax [3, 10] was 0.1 µg/mL, the bioavailability ([3]; female, mouse, plasma, oral 1.5 mg/kg, CD-1 mice, HCl/Solutol HS15/citrate pH 3 formulation, read-out: F) was 44% and the Tmax [3, 10] was 1 h. It also gave a half-life ([3]; female, mouse, plasma, oral 1.5 mg/kg, CD-1 mice, HCl/Solutol HS15/citrate pH 3 formulation, read-out: t1/2 (oral) (converted)) of 8.7 h, an AUC(0-t) [3, 11] of 2.6 µg·h/mL and a Cmax [3, 11] of 0.25 µg/mL. The bioavailability ([3]; female, mouse, plasma, oral 5.6 mg/kg, CD-1 mice, HCl/Solutol HS15/citrate pH 3 formulation, read-out: F) was 32%, the Tmax [3, 11] was 2 h and the half-life ([3]; female, mouse, plasma, oral 5.6 mg/kg, CD-1 mice, HCl/Solutol HS15/citrate pH 3 formulation, read-out: t1/2 (oral) (converted)) was 7.5 h. It also gave a bioavailability ([3]; female, mouse, plasma, oral 25 mg/kg vs i.v. 5 mg/kg, CD-1 mice, read-out: F (oral bioavailability)) of 100%, an AUC(0-t) [3, 12] of 187 µg·h/mL and a Cmax [3, 12] of 10.8 µg/mL. For the same molecule, the bioavailability ([3]; female, mouse, plasma, oral 105 mg/kg, CD-1 mice, HCl/Solutol HS15/citrate pH 3 formulation, read-out: F) was 100%, the Tmax [3, 12] was 24 h and the half-life ([3]; female, mouse, plasma, oral 105 mg/kg, CD-1 mice, HCl/Solutol HS15/citrate pH 3 formulation, read-out: t1/2 (oral) (converted)) was 9.4 h. The AUC(0-t) [3, 13] was 43.3 µg·h/mL, the Tmax [3, 13] was 1 h and the half-life ([3]; female, mouse, plasma, single oral dose 25 mg/kg, CD-1 mice, read-out: t1/2 (oral) (converted)) was 10 h. For the same molecule, the Cmax ([3]; female, mouse, single oral dose 25 mg/kg, CD-1 mice, plasma) was 3.6 µg/mL, the CL ([3]; i.v. 5 mg/kg, CD-1 mice) was 0.582 L/h/kg and the Dose linearity ([3]; oral 1.5–105 mg/kg, CD-1 mouse) was “nonlinear behavior”. The “Slope, log dose vs log AUC0-24 (dose proportionality)” value [3, 14] was 1.30, the “Slope, log dose vs log Cmax (dose proportionality)” value [3, 14] was 1.18 and the “Single oral dose giving 50% reduction in parasitemia” value ([4]; P. berghei malaria mouse model) was 1.2 mg/kg. For the same molecule, the “Single oral dose giving 90% reduction in parasitemia” value ([4]; P. berghei malaria mouse model) was 2.7 mg/kg, the “Single oral dose giving 99% reduction in parasitemia” value ([4]; P. berghei malaria mouse model) was 5.3 mg/kg and the Cure rate ([4]; single dose of 30 mg/kg) was 50%. The Animals cured ([4]; single oral dose of 100 mg/kg) was 100%, the Cure ([4]; thrice-daily oral doses of 50 mg/kg) was “complete cure” and the Papp A→B [5] was 16.9 nm/s.
